Data reported in paper PMC9186362, “Design and biological evaluation of substituted 5,7-dihydro-6H-indolo[2,3-c]quinolin-6-one as novel selective Haspin inhibitors” (Journal of Enzyme Inhibition and Medicinal Chemistry, 2022).

How the values were obtained:
MmCLK1 = MmCLK1 (Mus musculus, UniProt P22518); assay: ADP-Glo kinase assay; format: biochemical, Mus musculus (Mm); conditions: for remaining activity at 1 µM: mean n = 2, % of maximum activity of DMSO control, read-out: % Residual activity at 1 μM CLK1; for Selectivity index CLK1/Haspin: IC50 CLK1/IC50 Haspin; for IC50: dose-response curve, each point in duplicate, read-out: Kinase inhibition (IC50) CLK1
Description: (§1) Kinase activities were determined using the ADP-Glo methodology (ADP-Glo Kinase Assay; Promega) according to the assay described by Nguyen et al.[32] except for MmCLK1. The later was assayed in the following buffer: 10 mM MgCl2, 1 mM EGTA, 1 mM DTT, 25 mM Tris-HCl pH 7.5, 50 µg/ml heparin, 0.15 mg/ml BSA, with 0.027 µg/µl of the following peptide: GRSRSRSRSRSR as substrate.

RnDYRK1A = RnDYRK1A (Rattus norvegicus, UniProt Q63470); assay: ADP-Glo kinase assay; format: biochemical, Rattus norvegicus (Rn); conditions: for remaining activity: mean n = 2, % of maximum activity of DMSO control, read-out: % Residual activity at 1 μM DYRK1A; for Selectivity index DYRK/Haspin: IC50 DYRK1A/IC50 Haspin; for IC50: dose-response curve, each point in duplicate, read-out: Kinase inhibition (IC50) DYRK1A
Description: as §1

HsHaspin = target: T1, HsHaspin (Homo sapiens, UniProt Q8TF76); assay: ADP-Glo kinase assay; format: biochemical, Homo sapiens (Hs); conditions: for remaining activity at 1 µM: mean n = 2, % of maximum activity of DMSO control, read-out: % Residual activity at 1 μM Haspin; for IC50: dose-response curve, each point in duplicate, read-out: Kinase inhibition (IC50) Haspin
T1 sequence (Q8TF76 1-798): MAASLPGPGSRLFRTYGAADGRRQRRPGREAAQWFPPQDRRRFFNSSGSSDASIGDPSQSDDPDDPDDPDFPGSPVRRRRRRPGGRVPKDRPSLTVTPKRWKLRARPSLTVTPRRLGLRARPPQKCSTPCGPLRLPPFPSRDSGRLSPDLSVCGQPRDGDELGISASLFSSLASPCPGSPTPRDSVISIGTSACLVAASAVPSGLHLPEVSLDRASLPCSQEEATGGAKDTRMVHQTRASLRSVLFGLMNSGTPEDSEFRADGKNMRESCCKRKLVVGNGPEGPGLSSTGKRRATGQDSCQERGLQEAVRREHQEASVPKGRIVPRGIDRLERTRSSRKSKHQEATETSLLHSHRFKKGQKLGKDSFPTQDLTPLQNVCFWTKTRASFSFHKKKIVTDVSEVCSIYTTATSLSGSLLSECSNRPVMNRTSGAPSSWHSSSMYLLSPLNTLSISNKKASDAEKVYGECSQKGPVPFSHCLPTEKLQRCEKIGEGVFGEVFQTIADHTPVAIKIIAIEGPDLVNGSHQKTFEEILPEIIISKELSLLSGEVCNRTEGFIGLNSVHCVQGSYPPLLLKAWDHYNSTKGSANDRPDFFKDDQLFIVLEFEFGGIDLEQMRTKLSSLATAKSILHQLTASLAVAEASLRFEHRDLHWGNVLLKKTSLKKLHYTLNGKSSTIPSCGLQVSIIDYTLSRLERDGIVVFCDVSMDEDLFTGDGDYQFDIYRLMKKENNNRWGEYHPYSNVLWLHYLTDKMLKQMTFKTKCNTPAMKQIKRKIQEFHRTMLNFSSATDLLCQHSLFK
Description: as §1

HsGSK3β = HsGSK3β (Homo sapiens, UniProt P49841); assay: ADP-Glo kinase assay; format: biochemical, Homo sapiens (Hs); conditions: mean n = 2, % of maximum activity of DMSO control, read-out: % Residual activity at 1 μM GSK3β
Description: as §1

HsCdk9/Cyc E = HsCdk9/Cyc E (Homo sapiens, UniProt P50750); assay: ADP-Glo kinase assay; format: biochemical, Homo sapiens (Hs); conditions: mean n = 2, % of maximum activity of DMSO control, read-out: % Residual activity at 1 μM CDK9
Description: as §1

HsCdk5/p25 = HsCdk5/p25 (Homo sapiens, UniProt Q00535); assay: ADP-Glo kinase assay; format: biochemical, Homo sapiens (Hs); conditions: mean n = 2, % of maximum activity of DMSO control, read-out: % Residual activity at 1 μM CDK5
Description: as §1

HsCdk2/Cyc A = HsCdk2/Cyc A (Homo sapiens, UniProt P24941); assay: ADP-Glo kinase assay; format: biochemical, Homo sapiens (Hs); conditions: mean n = 2, % of maximum activity of DMSO control, read-out: % Residual activity at 1 μM CDK2
Description: as §1

HsPIM1 = HsPIM1 (Homo sapiens, UniProt P11309); assay: ADP-Glo kinase assay; format: biochemical, Homo sapiens (Hs); conditions: mean n = 2, % of maximum activity of DMSO control, read-out: % Residual activity at 1 μM PIM1
Description: as §1

HsGSK3β, sequence (P49841 whole entry): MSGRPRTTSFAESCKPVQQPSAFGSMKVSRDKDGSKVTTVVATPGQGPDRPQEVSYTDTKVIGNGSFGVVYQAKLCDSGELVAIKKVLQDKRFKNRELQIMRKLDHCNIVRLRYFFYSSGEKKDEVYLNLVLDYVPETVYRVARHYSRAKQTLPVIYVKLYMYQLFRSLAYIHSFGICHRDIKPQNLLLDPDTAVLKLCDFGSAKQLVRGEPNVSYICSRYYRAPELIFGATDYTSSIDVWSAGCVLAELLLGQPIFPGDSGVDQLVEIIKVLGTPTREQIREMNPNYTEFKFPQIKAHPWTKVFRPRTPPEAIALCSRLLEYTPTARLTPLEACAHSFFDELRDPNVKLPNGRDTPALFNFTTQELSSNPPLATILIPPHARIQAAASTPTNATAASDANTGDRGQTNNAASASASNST
MmCLK1, sequence (P22518 whole entry): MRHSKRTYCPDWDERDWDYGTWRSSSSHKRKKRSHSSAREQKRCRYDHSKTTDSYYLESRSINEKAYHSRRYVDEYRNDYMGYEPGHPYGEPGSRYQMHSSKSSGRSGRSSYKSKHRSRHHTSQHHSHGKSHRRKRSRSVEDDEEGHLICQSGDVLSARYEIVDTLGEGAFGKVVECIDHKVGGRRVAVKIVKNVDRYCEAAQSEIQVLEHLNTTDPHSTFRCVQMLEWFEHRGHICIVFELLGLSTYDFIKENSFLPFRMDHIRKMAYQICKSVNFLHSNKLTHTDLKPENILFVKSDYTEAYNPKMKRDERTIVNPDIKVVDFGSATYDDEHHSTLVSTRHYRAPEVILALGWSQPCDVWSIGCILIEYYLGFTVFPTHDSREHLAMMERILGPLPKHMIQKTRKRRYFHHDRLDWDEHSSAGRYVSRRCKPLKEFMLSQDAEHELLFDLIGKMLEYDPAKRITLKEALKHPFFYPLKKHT
HsCdk5/p25, sequence (Q00535 whole entry): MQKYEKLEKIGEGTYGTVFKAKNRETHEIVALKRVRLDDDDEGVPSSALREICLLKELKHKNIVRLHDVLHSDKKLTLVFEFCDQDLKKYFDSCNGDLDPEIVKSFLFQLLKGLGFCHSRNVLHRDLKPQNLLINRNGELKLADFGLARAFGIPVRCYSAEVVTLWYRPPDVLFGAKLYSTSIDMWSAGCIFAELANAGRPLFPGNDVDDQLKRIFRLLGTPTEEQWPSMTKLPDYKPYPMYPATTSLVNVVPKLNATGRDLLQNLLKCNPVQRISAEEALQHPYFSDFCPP
HsCdk5/p25, sequence (Q15078 99-307 partner limits assumed): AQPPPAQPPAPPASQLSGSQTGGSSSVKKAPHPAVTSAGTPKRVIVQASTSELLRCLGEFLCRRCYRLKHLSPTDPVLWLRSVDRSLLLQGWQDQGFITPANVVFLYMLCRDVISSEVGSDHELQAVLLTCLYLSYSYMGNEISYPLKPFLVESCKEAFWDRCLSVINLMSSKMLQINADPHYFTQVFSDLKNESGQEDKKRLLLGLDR
HsCdk9/Cyc E, sequence (P50750 whole entry): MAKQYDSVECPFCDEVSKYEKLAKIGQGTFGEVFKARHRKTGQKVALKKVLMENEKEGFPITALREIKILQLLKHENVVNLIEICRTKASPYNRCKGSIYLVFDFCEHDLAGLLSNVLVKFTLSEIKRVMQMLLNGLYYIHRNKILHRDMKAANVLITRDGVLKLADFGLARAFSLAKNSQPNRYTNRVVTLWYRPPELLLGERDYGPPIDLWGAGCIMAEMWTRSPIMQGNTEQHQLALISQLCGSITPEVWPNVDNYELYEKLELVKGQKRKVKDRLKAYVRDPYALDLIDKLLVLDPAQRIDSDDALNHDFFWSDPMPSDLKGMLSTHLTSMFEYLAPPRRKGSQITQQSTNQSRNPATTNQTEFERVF
HsCdk9/Cyc E, sequence (O60563 whole entry partner): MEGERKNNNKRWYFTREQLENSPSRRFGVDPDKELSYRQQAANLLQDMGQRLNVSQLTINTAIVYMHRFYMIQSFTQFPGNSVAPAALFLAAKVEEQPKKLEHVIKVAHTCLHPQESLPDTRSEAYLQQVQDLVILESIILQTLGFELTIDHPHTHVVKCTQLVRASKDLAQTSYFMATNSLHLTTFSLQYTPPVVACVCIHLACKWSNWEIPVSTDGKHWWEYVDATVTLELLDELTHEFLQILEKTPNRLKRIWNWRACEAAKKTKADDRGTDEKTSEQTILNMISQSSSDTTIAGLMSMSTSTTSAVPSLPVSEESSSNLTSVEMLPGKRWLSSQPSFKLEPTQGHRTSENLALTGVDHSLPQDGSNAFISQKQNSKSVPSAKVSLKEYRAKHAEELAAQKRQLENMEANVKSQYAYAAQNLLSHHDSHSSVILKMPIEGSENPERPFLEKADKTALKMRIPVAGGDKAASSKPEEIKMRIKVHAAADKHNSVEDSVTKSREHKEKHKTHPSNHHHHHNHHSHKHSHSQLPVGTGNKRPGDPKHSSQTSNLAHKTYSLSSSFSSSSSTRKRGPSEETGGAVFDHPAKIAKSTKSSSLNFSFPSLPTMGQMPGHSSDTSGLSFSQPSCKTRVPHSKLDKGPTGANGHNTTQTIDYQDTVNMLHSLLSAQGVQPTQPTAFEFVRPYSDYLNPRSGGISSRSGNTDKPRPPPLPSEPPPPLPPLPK
HsPIM1, sequence (P11309 whole entry): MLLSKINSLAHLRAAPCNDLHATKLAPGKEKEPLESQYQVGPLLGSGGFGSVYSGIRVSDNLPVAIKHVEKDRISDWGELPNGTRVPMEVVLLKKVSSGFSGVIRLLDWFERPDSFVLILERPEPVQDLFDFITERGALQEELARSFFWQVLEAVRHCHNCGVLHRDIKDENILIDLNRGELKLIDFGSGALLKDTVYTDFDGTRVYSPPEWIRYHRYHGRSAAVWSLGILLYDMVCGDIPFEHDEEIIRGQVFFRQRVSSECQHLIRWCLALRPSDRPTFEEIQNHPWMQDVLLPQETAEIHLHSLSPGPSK

remaining activity at 1 µM (MmCLK1)	remaining activity (RnDYRK1A)	remaining activity at 1 µM (HsHaspin)	remaining activity at 1 µM (HsGSK3β)	remaining activity at 1 µM (HsCdk9/Cyc E)	remaining activity at 1 µM (HsCdk5/p25)	remaining activity at 1 µM (HsCdk2/Cyc A)	remaining activity at 1 µM (HsPIM1)	melting point	Selectivity index CLK1/Haspin (MmCLK1)	IC50 (MmCLK1)	Selectivity index DYRK/Haspin (RnDYRK1A)	IC50 (RnDYRK1A)	IC50 (HsHaspin)	Structure (SMILES)
67%	61%	44%	100%	63%	100%	100%	86%							O=c1[nH]c2ccccc2c2c1[nH]c1ccccc12 [Compound 45, 5,7-Dihydro-6H-indolo[2,3-c]quinolin-6-one]
22%	33%	28%	47%	20%	59%	61%	37%	238 to 240 °C (dec.)						O=c1[nH]c2cc(O)ccc2c2c1[nH]c1ccccc12 [Compound 47, 3-Hydroxy-5,7-dihydro-6H-indolo[2,3-c]quinolin-6-one]
1%	5%	2%	22%	37%	63%	58%	29%	205 to 208 °C	5	78 nM	15	242 nM	16 nM	COc1ccc2[nH]c3c(=O)[nH]c4cc(OC)c(OC)cc4c3c2c1 [Compound 52, 2,3,10-Trimethoxy-5,7-dihydro-6H-indolo[2,3-c]quinolin-6-one]
11%	36%	33%	63%	56%	56%	76%	31%	241 to 244 °C						COc1ccc2[nH]c3c(=O)[nH]c4ccc(C(F)(F)F)cc4c3c2c1 [Compound 53, 10-Methoxy-2-(trifluoromethyl)-5,7-dihydro-6H-indolo[2,3-c]quinolin-6-one]
2%	10%	3%	58%	72%	100%	100%	37%	242 to 245 °C	8	259 nM	8	280 nM	34 nM	COc1ccc2[nH]c3c(=O)[nH]c4ccc(NC(C)=O)cc4c3c2c1 [Compound 57, N-(10-Methoxy-6-oxo-6,7-dihydro-5H-indolo[2,3-c]quinolin-2-yl)acetamide]
49%	55%	59%	51%	55%	55%	62%	48%	235 to 237 °C						COc1ccc2c(c1)[nH]c1c(=O)[nH]c3ccccc3c12 [Compound 58, 9-Methoxy-5,7-dihydro-6H-indolo[2,3-c]quinolin-6-one]
12%	21%	13%	41%	41%	51%	74%	34%	235 to 237 °C	3	94 nM	2	73 nM	30 nM	COc1ccc2c(c1)[nH]c1c(=O)[nH]c3ccc(OC)cc3c12 [Compound 59, 2,9-Dimethoxy-5,7-dihydro-6H-indolo[2,3-c]quinolin-6-one]
31%	44%	9%	100%	100%	100%	97%	100%	135 to 136 °C	6	122 nM	8	143 nM	19 nM	COc1ccc2[nH]c(=O)c3[nH]c4ccc(F)cc4c3c2c1 [Compound 60, 10-Fluoro-2-methoxy-5,7-dihydro-6H-indolo[2,3-c]quinolin-6-one]
0%	2%	0%	31%	6%	22%	31%	75%	> 250 °C	7	124 nM	7	131 nM	18 nM	COc1ccc2c(c1)c1c3cc(O)ccc3[nH]c(=O)c1n2C [Compound 62, 2-Hydroxy-10-methoxy-7-methyl-5,7-dihydro-6H-indolo[2,3-c]quinolin-6-one]
19%	29%	51%	44%	45%	68%	67%	42%							COc1ccc2c(c1)c1c3cc(C(F)(F)F)ccc3[nH]c(=O)c1n2C [Compound 63, 10-Methoxy-7-methyl-2-(trifluoromethyl)-5,7-dihydro-6H-Indolo[2,3-c]quinolin-6-one]
11%	19%	39%	81%	59%	100%	100%	82%	231 to 234 °C						COc1ccc2c(c1)c1c3cc(N(C)C)ccc3[nH]c(=O)c1n2C [Compound 64, 2-(Dimethylamino)-10-methoxy-7-methyl-5,7-dihydro-6H-indolo[2,3-c]quinolin-6-one]
